{
  "source": "ChEMBL document CHEMBL2073923",
  "about": "“Reversal of anticancer drug resistance by macrolide antibiotics in vitro and in vivo” (Clin Exp Pharmacol Physiol, 2000)",
  "assay_type_in_all_cases": "functional, cell-based",
  "key": {"[1]": {"biological_target": "T1, ATP-dependent translocase ABCB1 (Mus musculus, UniProt P21447)", "T1 sequence (P21447 whole entry)": "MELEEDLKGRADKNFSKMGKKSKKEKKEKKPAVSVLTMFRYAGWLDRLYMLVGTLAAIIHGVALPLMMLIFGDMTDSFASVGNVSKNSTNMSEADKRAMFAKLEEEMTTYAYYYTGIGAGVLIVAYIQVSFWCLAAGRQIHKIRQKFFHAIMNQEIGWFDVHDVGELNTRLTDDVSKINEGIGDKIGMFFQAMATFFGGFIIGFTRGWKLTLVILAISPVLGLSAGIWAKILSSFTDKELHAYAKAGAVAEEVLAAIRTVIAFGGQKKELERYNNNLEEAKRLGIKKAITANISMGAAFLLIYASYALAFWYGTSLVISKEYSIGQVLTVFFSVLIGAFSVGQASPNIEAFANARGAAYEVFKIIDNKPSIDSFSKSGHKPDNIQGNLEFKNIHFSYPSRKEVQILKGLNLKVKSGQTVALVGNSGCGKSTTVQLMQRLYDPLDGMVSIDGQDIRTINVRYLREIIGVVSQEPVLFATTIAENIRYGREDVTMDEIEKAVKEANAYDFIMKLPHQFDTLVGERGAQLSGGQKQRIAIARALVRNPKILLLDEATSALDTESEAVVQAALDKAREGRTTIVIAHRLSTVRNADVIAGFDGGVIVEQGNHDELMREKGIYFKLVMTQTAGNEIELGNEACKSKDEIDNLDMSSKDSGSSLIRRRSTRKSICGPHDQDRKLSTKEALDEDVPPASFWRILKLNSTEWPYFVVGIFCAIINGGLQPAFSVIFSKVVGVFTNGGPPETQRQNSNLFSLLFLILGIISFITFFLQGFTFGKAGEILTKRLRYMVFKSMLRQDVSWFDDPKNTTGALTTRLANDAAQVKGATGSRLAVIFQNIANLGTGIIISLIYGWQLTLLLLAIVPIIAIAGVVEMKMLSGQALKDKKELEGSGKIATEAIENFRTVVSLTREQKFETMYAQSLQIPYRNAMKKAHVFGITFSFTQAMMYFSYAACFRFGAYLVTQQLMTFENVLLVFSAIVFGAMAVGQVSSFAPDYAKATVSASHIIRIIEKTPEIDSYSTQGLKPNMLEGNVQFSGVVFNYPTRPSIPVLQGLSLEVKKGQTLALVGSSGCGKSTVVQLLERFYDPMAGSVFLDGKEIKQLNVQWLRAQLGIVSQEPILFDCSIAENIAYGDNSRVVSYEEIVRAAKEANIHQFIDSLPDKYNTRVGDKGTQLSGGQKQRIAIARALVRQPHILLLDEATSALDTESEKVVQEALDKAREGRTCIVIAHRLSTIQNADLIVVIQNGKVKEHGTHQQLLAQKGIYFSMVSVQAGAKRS", "experiment": "TP_TRANSPORTER: inhibition of Cyclosporin A efflux (CsA: 0.005 uM, Clarithromycin: 100 uM) in P388/S and P388/ADR cells"}, "[2]": {"biological_target": "T1, ATP-dependent translocase ABCB1", "experiment": "TP_TRANSPORTER: inhibition of Vinblastine efflux (Vinblastine: 0.002 uM, Clarithromycin: 100 uM) in P388/S and P388/ADR cells"}, "[3]": {"biological_target": "T1, ATP-dependent translocase ABCB1", "experiment": "TP_TRANSPORTER: inhibition of Cyclosporin A efflux (CsA: 0.005 uM, YM17K: 100 uM) in P388/S and P388/ADR cells"}, "[4]": {"biological_target": "T1, ATP-dependent translocase ABCB1", "experiment": "TP_TRANSPORTER: inhibition of Vinblastine efflux (Vinblastine: 0.002 uM, YM17K: 100 uM) in P388/S and P388/ADR cells"}, "[5]": {"biological_target": "T1, ATP-dependent translocase ABCB1", "experiment": "TP_TRANSPORTER: intracellular accumulation in P388/S and P388/ADR cells"}, "[6]": {"biological_target": "T1, ATP-dependent translocase ABCB1", "experiment": "TP_TRANSPORTER: inhibition of Vinblastine efflux (Vinblastine: 0.002 uM, FK-506: 10 uM) in P388/S and P388/ADR cells"}, "[7]": {"biological_target": "T1, ATP-dependent translocase ABCB1", "experiment": "TP_TRANSPORTER: inhibition of Cyclosporin A efflux (CsA: 0.005 uM, Josamycin: 100 uM) in P388/S and P388/ADR cells"}, "[8]": {"biological_target": "T1, ATP-dependent translocase ABCB1", "experiment": "TP_TRANSPORTER: inhibition of Vinblastine efflux (Vinblastine: 0.002 uM, Josamycin: 100 uM) in P388/S and P388/ADR cells"}},
  "data": [
    {"smiles": "CC[C@H]1OC(=O)[C@H](C)[C@@H](O[C@H]2C[C@@](C)(OC)[C@@H](O)[C@H](C)O2)[C@H](C)[C@@H](O[C@@H]2O[C@H](C)C[C@H](N(C)C)[C@H]2O)[C@](C)(OC)C[C@@H](C)C(=O)[C@H](C)[C@@H](O)[C@]1(C)O", "note": "[CLARITHROMYCIN]", "values": [
      {"measurement": "Activity", "setting": "[1]", "result": "inhibitor [(at a rough estimate) 820 % of control]"},
      {"measurement": "Activity", "setting": "[2]", "result": "inhibitor [(at a rough estimate) 250 % of control]"}
    ]},
    {"smiles": "CC[C@H]1OC(=O)CC[C@H](C)C(O[C@@H]2O[C@H](C)C[C@H](N(C)C)[C@H]2O)[C@@H](CC=O)C[C@@H](C)C(=O)/C=C/C(C)=C/[C@@H]1CO", "note": "(stereo partly drawn)", "values": [
      {"measurement": "Activity", "setting": "[3]", "result": "inhibitor [(at a rough estimate) 710 % of control]"},
      {"measurement": "Activity", "setting": "[4]", "result": "inhibitor [(at a rough estimate) 200 % of control]"}
    ]},
    {"smiles": "CC[C@]1(O)C[C@@H]2CN(CCc3c([nH]c4ccccc34)[C@@](C(=O)OC)(c3cc4c(cc3OC)N(C)[C@H]3[C@@](O)(C(=O)OC)[C@H](OC(C)=O)[C@]5(CC)C=CCN6CC[C@]43[C@@H]65)C2)C1", "note": "[VINBLASTINE]", "values": [
      {"measurement": "Activity", "setting": "[5]", "result": "substrate [+]"}
    ]},
    {"smiles": "C=CC[C@@H]1/C=C(\\C)C[C@H](C)C[C@H](OC)[C@H]2O[C@@](O)(C(=O)C(=O)N3CCCC[C@H]3C(=O)O[C@H](/C(C)=C/[C@@H]3CC[C@@H](O)[C@H](OC)C3)[C@H](C)[C@@H](O)CC1=O)[C@H](C)C[C@@H]2OC", "note": "[TACROLIMUS ANHYDROUS]", "values": [
      {"measurement": "Activity", "setting": "[6]", "result": "inhibitor [(at a rough estimate) 230 % of control]"}
    ]},
    {"smiles": "CO[C@@H]1[C@@H](O[C@@H]2O[C@H](C)[C@@H](O[C@H]3C[C@@](C)(O)[C@@H](OC(=O)CC(C)C)[C@H](C)O3)[C@H](N(C)C)[C@H]2O)[C@@H](CC=O)C[C@@H](C)[C@@H](O)/C=C/C=C/C[C@@H](C)OC(=O)C[C@H]1OC(C)=O", "note": "[JOSAMYCIN]", "values": [
      {"measurement": "Activity", "setting": "[7]", "result": "inhibitor [(at a rough estimate) 710 % of control]"},
      {"measurement": "Activity", "setting": "[8]", "result": "inhibitor [(at a rough estimate) 180 % of control]"}
    ]}
  ]
}
